Like-named read-outs stand apart in the source and are kept apart here.
What was measured:
human TLR7 = target: T1, human TLR7 (Homo sapiens, UniProt Q9NYK1); experiment: In vitro human TLR7 binding reporter assay (HEK-Blue, NF-kB/AP1-inducible SEAP); format: cell-based; conditions: HEK-Blue human TLR7 SEAP reporter cells; activity range classes; read-out: TLR7 Agonist EC50
T1 construct: host or cells: human HEK-Blue cells (HEK293-derived) co-expressing TLR7 and an NF-kB/AP1-inducible SEAP reporter
T1 sequence (Q9NYK1 27-1049): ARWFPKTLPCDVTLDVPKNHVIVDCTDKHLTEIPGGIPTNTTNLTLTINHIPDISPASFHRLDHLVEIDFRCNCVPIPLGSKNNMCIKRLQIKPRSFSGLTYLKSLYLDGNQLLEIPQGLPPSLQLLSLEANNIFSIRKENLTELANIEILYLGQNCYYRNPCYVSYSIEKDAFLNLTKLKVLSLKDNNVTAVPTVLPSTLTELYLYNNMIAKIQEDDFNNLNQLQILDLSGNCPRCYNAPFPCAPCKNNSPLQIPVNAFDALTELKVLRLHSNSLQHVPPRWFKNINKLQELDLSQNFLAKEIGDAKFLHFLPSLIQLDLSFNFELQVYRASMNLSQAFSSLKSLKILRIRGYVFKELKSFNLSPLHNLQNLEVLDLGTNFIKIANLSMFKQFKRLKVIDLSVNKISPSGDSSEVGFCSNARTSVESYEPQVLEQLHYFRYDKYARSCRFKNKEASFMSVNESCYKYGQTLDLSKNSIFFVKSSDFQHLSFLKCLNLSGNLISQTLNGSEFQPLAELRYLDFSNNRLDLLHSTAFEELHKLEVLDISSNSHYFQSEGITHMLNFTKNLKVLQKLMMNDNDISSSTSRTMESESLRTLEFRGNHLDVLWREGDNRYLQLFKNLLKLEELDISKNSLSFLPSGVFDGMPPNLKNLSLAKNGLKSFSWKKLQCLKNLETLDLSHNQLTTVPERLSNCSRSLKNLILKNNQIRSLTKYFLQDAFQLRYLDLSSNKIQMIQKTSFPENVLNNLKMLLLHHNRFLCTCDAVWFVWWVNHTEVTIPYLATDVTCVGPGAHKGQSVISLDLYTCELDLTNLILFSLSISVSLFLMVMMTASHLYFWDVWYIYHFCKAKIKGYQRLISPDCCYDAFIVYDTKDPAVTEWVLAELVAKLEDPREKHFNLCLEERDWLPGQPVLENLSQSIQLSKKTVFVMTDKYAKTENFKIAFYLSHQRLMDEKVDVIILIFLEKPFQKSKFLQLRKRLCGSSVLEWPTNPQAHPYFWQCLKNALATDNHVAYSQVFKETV
Experimental: (§1) In Vitro Human TLR7 and TLR8 Binding Reporter Assays
(§2) Logarithmically-growing human HEK-Blue cells co-expressing a TLR7 or TLR8 gene and a NF-kB/AP1-inducible SEAP (secreted embryonic alkaline phosphatase; Invivogen, San Diego, CA) reporter gene are added to individual wells of a 384-well plate (15,000 cells per 20 μL per well) and maintained for 24 h at 37° C., 5% CO2. Test compounds or DMSO are distributed to separate wells the next day using acoustic liquid handling technology (100 nL per well) and cells are subsequently incubated for 18 h at 37° C., 5% CO2. Cellular SEAP production is measured using an Envision plate reader instrument thirty minutes after adding freshly-made Quanti-Blue reagent (prepared by following manufacturer instructions; Invivogen, San Diego, CA) to the HEK-Blue TLR Nf-kB-SEAP cell reactions. All EC50 values (half-maximal effective concentration) are determined using proprietary data analysis software. Normalized EC50 value=absolute value determined by setting 100% Ymax using a reference standard RLU (relative light unit) values from cells treated with 50 μM of the reference standard.

[1] = tested on: IL-1β production in PMA-differentiated THP-1 cells; experiment: Measurement of IL-1β production in PMA-differentiated THP-1 cells (ELISA, 4 hours); format: cell-based, human; conditions: assayed using one or more of the described procedures, read-out: NLRP3 hIL1B IC50
Experimental: Measurement of IL-1β Production in PMA-Differentiated THP-1 Cells THP-1 cells were purchased from the American Type Culture Collection and sub-cultured according to instructions from the supplier. Prior to experiments, cells were cultured in RPMI 1640 containing 10% heat inactivated FBS, penicillin (100 units/ml) and streptomycin (100 μg/ml), and maintained in log phase prior to experimental setup. Prior to the experiment THP-1 were treated with PMA (Phorbol 12-myristate 13-acetate) (10 μg/ml) for 24 hours. The day of the experiment the media was removed and attaching cells were treated with trypsin for 2 minutes, cells were then collected, washed with PBS (phosphate buffer saline), spin down, resuspended in 2% heat inactivated FBS with RPMI at a concentration of 1×10^6 cells/ml, and 100 μl was plated in a 96 well plate. Compounds were dissolved in dimethyl sulfoxide (DMSO) and added to the culture medium to achieve desired concentration (e.g. 100, 30, 10, 3, 1, 0.3 or 0.1 μM). Cells were incubated with compounds for 4 hours. Cell free supernatant was collected and the production of IL-1β was evaluated by ELISA. A vehicle only control was run concurrently with each experiment. Final DMSO concentration was 1%.

human TLR8 = target: T2, human TLR8 (Homo sapiens, UniProt Q9NR97); experiment: In vitro human TLR8 binding reporter assay (HEK-Blue, NF-kB/AP1-inducible SEAP); format: cell-based; conditions: HEK-Blue human TLR8 SEAP reporter cells; activity range classes; read-out: TLR8 Agonist EC50
T2 construct: host or cells: human HEK-Blue cells (HEK293-derived) co-expressing TLR8 and an NF-kB/AP1-inducible SEAP reporter
T2 sequence (Q9NR97 27-1041): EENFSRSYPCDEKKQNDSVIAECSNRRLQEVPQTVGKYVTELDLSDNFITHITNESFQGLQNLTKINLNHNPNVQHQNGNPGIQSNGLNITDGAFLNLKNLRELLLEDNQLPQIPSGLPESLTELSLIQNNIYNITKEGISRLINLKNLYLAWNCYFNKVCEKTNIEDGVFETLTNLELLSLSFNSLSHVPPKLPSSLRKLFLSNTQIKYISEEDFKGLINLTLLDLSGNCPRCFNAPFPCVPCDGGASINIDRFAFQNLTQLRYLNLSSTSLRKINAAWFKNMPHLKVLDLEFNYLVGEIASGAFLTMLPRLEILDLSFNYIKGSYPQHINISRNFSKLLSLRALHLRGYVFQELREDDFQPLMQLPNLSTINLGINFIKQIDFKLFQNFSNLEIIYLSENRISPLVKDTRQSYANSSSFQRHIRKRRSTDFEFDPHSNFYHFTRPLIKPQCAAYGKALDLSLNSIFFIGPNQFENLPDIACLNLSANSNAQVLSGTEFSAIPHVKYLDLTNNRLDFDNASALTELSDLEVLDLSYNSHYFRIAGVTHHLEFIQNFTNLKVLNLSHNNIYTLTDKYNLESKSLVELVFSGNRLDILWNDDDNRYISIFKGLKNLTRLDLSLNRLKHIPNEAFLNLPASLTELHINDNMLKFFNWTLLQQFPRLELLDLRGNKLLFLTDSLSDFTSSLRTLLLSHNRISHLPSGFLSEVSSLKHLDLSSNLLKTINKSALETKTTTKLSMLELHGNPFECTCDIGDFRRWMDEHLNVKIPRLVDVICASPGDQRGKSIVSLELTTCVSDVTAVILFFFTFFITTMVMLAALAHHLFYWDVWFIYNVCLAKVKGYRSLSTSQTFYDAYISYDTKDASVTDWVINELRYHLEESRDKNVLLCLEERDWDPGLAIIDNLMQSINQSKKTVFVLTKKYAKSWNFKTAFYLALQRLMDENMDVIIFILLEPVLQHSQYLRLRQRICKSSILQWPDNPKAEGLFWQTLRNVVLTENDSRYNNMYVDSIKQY
Experimental: as §1, §2

[2] = Homo sapiens, THP-1, human IL-1β production

“3-[4-amino-7-(1H-pyrazol-3-yl)-[1,3]oxazolo[4,5-c]quinolin-2-yl]propan-1-ol [Compound 107]” was tested, and the EC50 (human TLR7) was over 100 µM, the IC50 ([1]; human IL-1β production) was 340 nM and the EC50 (human TLR8) was over 100 µM.

Work on `Nc1cc(N[C@H]2CCCC[C@H]2O)c2ccc(-c3ccn[nH]3)cc2n1` (racemic) [Compound 157] yielded an EC50 (human TLR7) of over 100 µM, an IC50 ([1]; human IL-1β production) of 730 nM and an EC50 (human TLR8) of over 100 µM.

With `Nc1cc(O[C@H]2COC[C@H]2O)c2ccc(-c3ccn[nH]3)cc2n1` (racemic) [Compound 197] the EC50 (human TLR7) was over 100 µM, the IC50 [1, 2] was 2860 nM and the EC50 (human TLR8) was over 100 µM.

Compound `Nc1cc(NC2CCNC2)c2ccc(-c3ccn[nH]3)cc2n1` (stereo in doubt) [Compound 321, (S)-7-(1H-pyrazol-3-yl)-N4-(pyrrolidin-3-yl)quinoline-2,4-diamine] has an EC50 (human TLR7) of over 100 µM, an IC50 ([1]; human IL-1β production) of 11600 nM and an EC50 (human TLR8) of over 100 µM.

For `Nc1nc2cc(-c3cc[nH]n3)ccc2cc1CCCCCO` [Compound 101, 5-[2-amino-7-(1H-pyrazol-3-yl)quinolin-3-yl]pentan-1-ol], the EC50 (human TLR7) was over 100 µM, the IC50 [1, 2] was 790 nM and the EC50 (human TLR8) was over 100 µM.

Work on `Nc1nc2cc(-c3cc[nH]n3)ccc2cc1CCCCO` [Compound 102, 4-[2-amino-7-(1H-pyrazol-3-yl)quinolin-3-yl]butan-1-ol] yielded an EC50 (human TLR7) of over 100 µM, an IC50 [1, 2] of 1380 nM and an EC50 (human TLR8) of over 100 µM.

Work on `Nc1nc2cc(-c3cc[nH]n3)ccc2cc1CCCO` [Compound 103, 3-[2-amino-7-(1H-pyrazol-3-yl)quinolin-3-yl]propan-1-ol] yielded an EC50 (human TLR7) of over 100 µM, an IC50 [1, 2] of 1600 nM and an EC50 (human TLR8) of over 100 µM.

Work on `Nc1nc2cc(-c3cc[nH]n3)ccc2cc1CCCOCc1ccccc1` [Compound 104, 3-[3-(benzyloxy)propyl]-7-(1H-pyrazol-3-yl)quinolin-2-amine] yielded an EC50 (human TLR7) of over 100 µM, an IC50 [1, 2] of 690 nM and an EC50 (human TLR8) of over 100 µM.

`Nc1nc2cc(-c3cc[nH]n3)ccc2cc1CCCCOCc1ccccc1` [Compound 105, 3-[4-(benzyloxy)butyl]-7-(1H-pyrazol-3-yl)quinolin-2-amine] showed an EC50 (human TLR7) of over 100 µM, an IC50 [1, 2] of 2980 nM and an EC50 (human TLR8) of over 100 µM.

Work on `Nc1nc2cc(-c3cc[nH]n3)ccc2cc1CCCCCOCc1ccccc1` [Compound 106, 3-[5-(benzyloxy)pentyl]-7-(1H-pyrazol-3-yl)quinolin-2-amine] yielded an EC50 (human TLR7) of over 100 µM, an IC50 [1, 2] of 3820 nM and an EC50 (human TLR8) of over 100 µM.

With `Nc1cc(CCCOCc2ccccc2)c2ccc(-c3cc[nH]n3)cc2n1` [Compound 108, 4-[3-(benzyloxy)propyl]-7-(1H-pyrazol-3-yl)quinolin-2-amine] the IC50 [1, 2] was 1150 nM.

In the case of `CC(=O)NCCCCc1cc2ccc(-c3cc[nH]n3)cc2nc1N` [Compound 109], the EC50 (human TLR7) is reported as over 100 µM, the IC50 [1, 2] is reported as 4330 nM and the EC50 (human TLR8) is reported as over 100 µM.

`CCNCCCc1cc2ccc(-c3cc[nH]n3)cc2nc1N` [Compound 110, 3-[3-(ethylamino)propyl]-7-(1H-pyrazol-3-yl)quinolin-2-amine] showed an EC50 (human TLR7) of over 100 µM, an IC50 [1, 2] of 1640 nM and an EC50 (human TLR8) of over 100 µM.

Work on `CCN(CCCCc1cc2ccc(-c3cc[nH]n3)cc2nc1N)C(C)=O` [Compound 111] yielded an EC50 (human TLR7) of over 100 µM, an IC50 [1, 2] of 2460 nM and an EC50 (human TLR8) of over 100 µM.

For `Nc1nc2cc(-c3ccn[nH]3)ccc2cc1CNCC1CCCO1` (stereo not drawn) [Compound 117], the IC50 [1, 2] was 5800 nM.

Work on `Nc1nc2cc(-c3ccn[nH]3)ccc2cc1C1(CO)CC1` [Compound 120] yielded an IC50 [1, 2] of 4240 nM.

Compound `Nc1nc2cc(-c3ccn[nH]3)ccc2cc1CCN1CCOCC1` [Compound 121] has an IC50 [1, 2] of 3030 nM and an EC50 (human TLR8) of over 100 µM.

`CN1CCN(CCc2cc3ccc(-c4ccn[nH]4)cc3nc2N)CC1` [Compound 122] was tested, and the IC50 [1, 2] was 1870 nM.

For `Nc1nc2cc(-c3ccn[nH]3)ccc2cc1-c1cnc[nH]1` [Compound 123, 3-(1H-imidazol-5-yl)-7-(1H-pyrazol-5-yl)quinolin-2-amine], the IC50 [1, 2] was 3010 nM.

With `Nc1nc2cc(-c3ccn[nH]3)ccc2cc1-c1cccc(CO)n1` [Compound 125] the IC50 [1, 2] was 1980 nM.

Work on `Cc1n[nH]c(-c2cc3ccc(-c4ccn[nH]4)cc3nc2N)n1` [Compound 126] yielded an IC50 [1, 2] of 3530 nM.

`CN1CCN(c2cc(N)nc3cc(-c4ccn[nH]4)ccc23)CC1` [Compound 130] showed an IC50 [1, 2] of 2760 nM and an EC50 (human TLR8) of over 100 µM.

In the case of `CN(C)CCCNc1cc(N)nc2cc(-c3ccn[nH]3)ccc12` [Compound 168, N4-(3-(dimethylamino)propyl)-7-(1H-pyrazol-5-yl)quinoline-2,4-diamine], the IC50 [1, 2] is reported as 2400 nM and the EC50 (human TLR8) is reported as over 100 µM.

In the case of `Nc1cc(NCCCO)c2ccc(-c3ccn[nH]3)cc2n1` [Compound 171], the IC50 [1, 2] is reported as 380 nM and the EC50 (human TLR8) is reported as over 100 µM.

`Nc1cc(OCCCN2CCCC2=O)c2ccc(-c3ccn[nH]3)cc2n1` [Compound 181] showed an IC50 [1, 2] of 9920 nM and an EC50 (human TLR8) of over 100 µM.

`CN1CCN(CCCCOc2cc(N)nc3cc(-c4ccn[nH]4)ccc23)CC1` [Compound 184] showed an IC50 [1, 2] of 7270 nM and an EC50 (human TLR8) of over 100 µM.

Compound `Nc1cc(NCCC2CCOCC2)c2ccc(-n3cccn3)cc2n1` [Compound 346, 7-(1H-pyrazol-1-yl)-N4-(2-(tetrahydro-2H-pyran-4-yl)ethyl)quinoline-2,4-diamine] has an EC50 (human TLR7) of over 100 µM and an IC50 [1, 2] of 760 nM.

Reference: patent US12171756B2, “NLRP3 modulators” (Innate Tumor Immunity, Inc., priority 2017, dated 2024)
